Literature values as cited in publication PMC3759941 (International Journal of Molecular Sciences, 2013).
pIC50: −log10 of the molar value. Where two headings read alike, the source gives them in different places.

Tested on: EeAChE

Compound | pIC50 (Table 2, bis-pyridinium reactivators) | pIC50 (Table 3) | pIC50 (Table 1, mono-pyridinium reactivators)
ON=Cc1cc[n+](CCC[n+]2ccc(/C=N/O)cc2)cc1 [Compound 6, trimedoxime] | 1.28 | 1.28 | 
ON=Cc1cc[n+](C/C=C/C[n+]2ccc(C=NO)cc2)cc1 [Compound 23] |  | 1.44 | 
C[n+]1ccccc1/C=N/O [Compound 1, 2-pyridine aldoxime methiodide] |  |  | 1.26
